Source: patent US11220508B2, “TYK2 inhibitors and uses thereof” (Nimbus Lakshmi, Inc., priority 2016, dated 2022)

Legend:
TYK2 JH1 kinase function = TYK2 JH1 kinase function (Homo sapiens (Human), UniProt P29597); test: Tyk2 radioactive kinase assay; type: biochemical; details: active kinase assay, ATP at 10 μM
Experimental: (§1) Peptide substrate, [KKSRGDYMTMQIG], (20 μM) is prepared in reaction buffer (20 mM Hepes pH 7.5, 10 mM MgCl2, 1 mM EGTA, 0.02% Brij35, 0.02 mg/mL BSA, 0.1 mM […], 2 mM DTT, 1% DMSO. TYK2 (Invitrogen) kinase is added, followed by compounds in DMSO. 33PATP is added to initiate the reaction in ATP at 10 μM. Kinase reaction is incubated for 120 min at room temp and reactions are spotted onto P81 ion exchange paper (Whatman #3698-915), and then washed extensively in 0.75% phosphoric acid, prior to reading the radioactivity counts. For JAK2 (Invitrogen) kinase assay the peptide substrate poly[Glu:Tyr] (4:1), 0.2 mg/ml is used, in the reaction carried out the same as for TYK2.

JAK2 JH1 kinase function = JAK2 JH1 kinase function (Homo sapiens (Human), UniProt O60674); test: JAK2 radioactive kinase assay; type: biochemical; details: active kinase assay, ATP at 10 μM
JAK2 JH1 kinase function, sequence (O60674 whole entry): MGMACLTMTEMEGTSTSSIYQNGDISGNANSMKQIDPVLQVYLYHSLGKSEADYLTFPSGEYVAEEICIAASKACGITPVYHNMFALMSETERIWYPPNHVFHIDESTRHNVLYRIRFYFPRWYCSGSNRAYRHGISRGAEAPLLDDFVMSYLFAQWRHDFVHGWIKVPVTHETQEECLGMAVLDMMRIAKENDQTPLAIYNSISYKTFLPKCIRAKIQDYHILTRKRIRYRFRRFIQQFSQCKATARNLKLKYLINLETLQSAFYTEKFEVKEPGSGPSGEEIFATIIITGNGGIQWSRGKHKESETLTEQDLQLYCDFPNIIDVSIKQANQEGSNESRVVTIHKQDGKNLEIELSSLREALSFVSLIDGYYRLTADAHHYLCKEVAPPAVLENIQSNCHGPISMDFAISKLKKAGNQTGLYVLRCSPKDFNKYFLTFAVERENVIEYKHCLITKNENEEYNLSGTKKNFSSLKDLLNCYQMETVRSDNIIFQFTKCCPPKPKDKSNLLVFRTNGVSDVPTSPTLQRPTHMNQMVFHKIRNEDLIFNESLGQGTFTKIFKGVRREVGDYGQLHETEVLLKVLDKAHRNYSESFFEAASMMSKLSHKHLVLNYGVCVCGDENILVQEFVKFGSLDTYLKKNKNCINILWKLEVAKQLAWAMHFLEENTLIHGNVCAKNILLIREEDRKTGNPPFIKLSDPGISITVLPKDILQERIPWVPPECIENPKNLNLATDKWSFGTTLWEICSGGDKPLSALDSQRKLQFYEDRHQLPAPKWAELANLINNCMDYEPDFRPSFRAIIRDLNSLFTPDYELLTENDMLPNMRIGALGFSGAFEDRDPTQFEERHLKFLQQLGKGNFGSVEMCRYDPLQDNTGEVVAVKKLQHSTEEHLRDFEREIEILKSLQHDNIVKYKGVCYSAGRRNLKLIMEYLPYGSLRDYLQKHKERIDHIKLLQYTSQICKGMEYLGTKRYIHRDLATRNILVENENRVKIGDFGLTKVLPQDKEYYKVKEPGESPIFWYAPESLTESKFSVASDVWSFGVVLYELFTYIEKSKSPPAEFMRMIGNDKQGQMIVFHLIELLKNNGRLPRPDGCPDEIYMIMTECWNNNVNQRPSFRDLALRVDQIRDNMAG
Experimental: as §1

[1] = target: human TYK2 (JH2domain-pseudokinase) (Homo sapiens (Human), UniProt P29597); test: TYK2 JH2 domain binding assay (KINOMEscan, DiscoveRx); details: Table 4, JH2 binding assay
human TYK2 (JH2domain-pseudokinase), sequence (P29597 556-888): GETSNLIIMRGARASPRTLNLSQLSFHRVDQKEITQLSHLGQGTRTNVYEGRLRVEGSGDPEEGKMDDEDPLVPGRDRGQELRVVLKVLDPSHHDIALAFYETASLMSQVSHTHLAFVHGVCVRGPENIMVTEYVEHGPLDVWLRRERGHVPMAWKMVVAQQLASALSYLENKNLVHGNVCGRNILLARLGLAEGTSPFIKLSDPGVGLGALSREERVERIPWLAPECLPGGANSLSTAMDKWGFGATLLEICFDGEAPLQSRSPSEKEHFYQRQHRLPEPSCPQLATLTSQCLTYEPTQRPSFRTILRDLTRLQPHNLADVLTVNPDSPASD

TYK2 JH1 kinase function, sequence (P29597 whole entry): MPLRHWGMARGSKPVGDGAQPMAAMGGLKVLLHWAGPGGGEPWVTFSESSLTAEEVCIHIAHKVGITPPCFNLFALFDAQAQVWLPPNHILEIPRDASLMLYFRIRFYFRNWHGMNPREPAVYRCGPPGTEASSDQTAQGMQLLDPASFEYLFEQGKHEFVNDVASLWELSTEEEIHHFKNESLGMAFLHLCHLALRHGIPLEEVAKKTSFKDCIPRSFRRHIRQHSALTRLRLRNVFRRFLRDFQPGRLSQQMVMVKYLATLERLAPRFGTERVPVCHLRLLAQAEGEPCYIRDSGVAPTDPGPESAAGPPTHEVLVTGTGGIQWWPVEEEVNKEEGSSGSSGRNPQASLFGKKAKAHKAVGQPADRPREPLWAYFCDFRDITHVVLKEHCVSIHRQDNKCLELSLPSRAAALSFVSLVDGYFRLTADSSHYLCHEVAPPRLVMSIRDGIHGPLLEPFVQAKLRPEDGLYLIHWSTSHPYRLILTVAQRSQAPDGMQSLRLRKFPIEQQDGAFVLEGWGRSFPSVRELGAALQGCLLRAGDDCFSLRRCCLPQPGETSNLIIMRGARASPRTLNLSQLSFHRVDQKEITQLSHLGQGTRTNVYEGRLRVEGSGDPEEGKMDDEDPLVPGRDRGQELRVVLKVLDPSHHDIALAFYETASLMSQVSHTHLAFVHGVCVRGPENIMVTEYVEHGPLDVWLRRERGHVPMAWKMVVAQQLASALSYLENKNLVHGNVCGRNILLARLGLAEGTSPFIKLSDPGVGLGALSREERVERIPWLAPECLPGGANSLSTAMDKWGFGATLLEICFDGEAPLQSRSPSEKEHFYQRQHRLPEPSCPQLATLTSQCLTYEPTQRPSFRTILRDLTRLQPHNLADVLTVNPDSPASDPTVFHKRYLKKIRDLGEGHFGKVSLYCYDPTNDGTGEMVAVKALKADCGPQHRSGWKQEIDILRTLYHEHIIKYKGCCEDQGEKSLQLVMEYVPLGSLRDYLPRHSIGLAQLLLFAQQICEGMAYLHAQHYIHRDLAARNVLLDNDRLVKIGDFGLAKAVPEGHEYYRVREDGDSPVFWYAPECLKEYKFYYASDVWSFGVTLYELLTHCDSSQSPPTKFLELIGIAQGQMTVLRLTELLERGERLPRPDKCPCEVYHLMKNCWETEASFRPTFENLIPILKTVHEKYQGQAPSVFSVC

Compound | inhibitory activity against TYK2 JH1 kinase function (TYK2 JH1 kinase function) | inhibitory activity against JAK2 JH1 kinase function (JAK2 JH1 kinase function) | Kd [1] [nM]
COc1c(Nc2cc(NC(=O)C3CC3)ncc2-c2nnc(C(F)(F)F)o2)cccc1-c1ncn(C)n1 [VIII-3, N-(4-((2-methoxy-3-(1-methyl-1H-1,2,4-triazol-3-yl)phenyl)amino)-5-(5-(trifluoromethyl)-1,3,4-oxadiazol-2-yl)pyridin-2-yl)cyclopropanecarboxamide] | no detectable inhibitory activity | no detectable inhibitory activity | 
COc1c(Cl)cccc1Nc1cc(Nc2cccc(N3CC(OC)C3)n2)nc2[nH]n(C)c(=O)c12 [Compound I-116, 4-((3-chloro-2-methoxyphenyl)amino)-6-((6-(3-methoxyazetidin-1-yl)pyridin-2-yl)amino)-2-methyl-1,2-dihydro-3H-pyrazolo[3,4-b]pyridin-3-one] |  |  | > 10
COc1c(Nc2cc(NC(=O)C3CC3)nc3[nH]n(C)c(=O)c23)cccc1-c1nnn(C)n1 [Compound I-1, N-(4-((2-methoxy-3-(2-methyl-2H-tetrazol-5-yl)phenyl)amino)-2-methyl-3-oxo-2,3-dihydro-1H-pyrazolo[3,4-b]pyridin-6-yl)cyclopropanecarboxamide] | no detectable inhibitory activity |  | 
COC(=O)c1nnc(-c2cnc(NC(=O)C3CC3)cc2Nc2cccc(-c3ncn(C)n3)c2OC)o1 [VIII-4, methyl 5-(6-(cyclopropanecarboxamido)-4-((2-methoxy-3-(1-methyl-1H-1,2,4-triazol-3-yl)phenyl)amino)pyridin-3-yl)-1,3,4-oxadiazole-2-carboxylate] | no detectable inhibitory activity | no detectable inhibitory activity | 
COCc1ccnc(Nc2cc(Nc3cccc(-c4nnn(C)n4)c3OC)c3c(=O)n(C)[nH]c3n2)c1 [Compound I-2, 4-((2-methoxy-3-(2-methyl-2H-tetrazol-5-yl)phenyl)amino)-6-((4-(methoxymethyl)pyridin-2-yl)amino)-2-methyl-1,2-dihydro-3H-pyrazolo[3,4-b]pyridin-3-one] | no detectable inhibitory activity |  | 
COc1c(Nc2cc(NC(=O)C3CC3)ncc2-c2ncc(F)s2)cccc1-c1nnn(C)n1 [VIII-2, N-(5-(5-fluorothiazol-2-yl)-4-((2-methoxy-3-(2-methyl-2H-tetrazol-5-yl)phenyl)amino)pyridin-2-yl)cyclopropanecarboxamide] | no detectable inhibitory activity | no detectable inhibitory activity | 
COc1c(Nc2cc(NC(=O)C3CC3)ncc2-c2ncc(Cl)s2)cccc1-c1nnn(C)n1 [VIII-1, N-(5-(5-chlorothiazol-2-yl)-4-((2-methoxy-3-(2-methyl-2H-tetrazol-5-yl)phenyl)amino)pyridin-2-yl)cyclopropanecarboxamide] | no detectable inhibitory activity | no detectable inhibitory activity | 
